Reference: PubChem BioAssay AID256 (DTP/NCI, 2004)
Values joined by “and” are separate entries in the source; they are usually repeats but may differ in a detail not shown here. Identical values can stand only once. Toxic doses and inconclusive results are not listed. How the source made its calls: active means survival T/C of 150% or more; inactive means T/C below 125% in these data.

Test system: CD2F1 mice, L1210 leukemia ip, survival T/C
Experiment: NCI In Vivo Anticancer Drug Screen. Data for tumor model L1210 Leukemia (intraperitoneal) in CD2F1 (CDF1) mice
Conditions: endpoint: mean survival time, higher = longer survival
Procedure, shortened: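 In this screen, transplantable tumors were grown in mice given either the compound or its vehicle. Results were expressed as the treated measurement relative to the control measurement.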

[1] = dose: 100.0 mg/kg/injection, schedule: Q04DX003 (ip), vehicle: saline with Tween-80
[2] = dose: 200.0 mg/kg/injection, schedule: Q04DX003 (ip), vehicle: saline with Tween-80
[3] = dose: 400.0 mg/kg/injection, schedule: Q04DX003 (ip), vehicle: saline with Tween-80
[4] = dose: 100.0 mg/kg/injection, schedule: Q04DX003 (ip), vehicle: saline
[5] = dose: 100.0 mg/kg/injection, schedule: Q01DX009 (ip), vehicle: saline with Tween-80
[6] = dose: 200.0 mg/kg/injection, schedule: Q01DX009 (ip), vehicle: saline with Tween-80
[7] = dose: 400.0 mg/kg/injection, schedule: Q01DX009 (ip), vehicle: saline with Tween-80
[8] = dose: 12.5 mg/kg/injection, schedule: Q01DX009 (ip), vehicle: saline with Tween-80
[9] = dose: 25.0 mg/kg/injection, schedule: Q01DX009 (ip), vehicle: saline with Tween-80
[10] = dose: 50.0 mg/kg/injection, schedule: Q01DX009 (ip), vehicle: saline with Tween-80

Measured: T/C

CCSC(C(OC(C)=O)C(OC(C)=O)C(COC(C)=O)OC(C)=O)n1cc(F)c(=O)[nH]c1=O (centres undefined)
inactive: dose: 12.5 mg/kg/injection, schedule: Q01DX005 (ip), vehicle: other 100 % of control and 104 % of control | dose: 25.0 mg/kg/injection, schedule: Q01DX005 (ip), vehicle: other 98 % of control and 105 % of control | dose: 50.0 mg/kg/injection, schedule: Q01DX005 (ip), vehicle: other 88 % of control and 98 % of control | dose: 100.0 mg/kg/injection, schedule: Q01DX005 (ip), vehicle: other 98 % of control and 105 % of control | dose: 200.0 mg/kg/injection, schedule: Q01DX005 (ip), vehicle: other 94 % of control and 107 % of control

Cc1ccc(C)c(NC(=O)c2ccc(Cl)cc2Cl)c1
inactive: [1] 98 % of control | [2] 98 % of control | [3] 96 % of control

C=CCNC(N)=O
inactive: [4] 94 % of control | dose: 200.0 mg/kg/injection, schedule: Q04DX003 (ip), vehicle: saline 93 % of control

O=C1N(C2CCCCC2)CC2C(c3ccccc3)NNC12O (centres undefined)
inactive: [5] 103 % of control | [1] 97 % of control | [6] 90 % of control | [2] 97 % of control | [7] 100 % of control | [3] 98 % of control

O=C(O)c1nn2c(=O)[nH]c3ccccc3c2c1C(=O)O
inactive: dose: 12.5 mg/kg/injection, schedule: Q04DX002 (ip), vehicle: saline with Tween-80 90 % of control | dose: 25.0 mg/kg/injection, schedule: Q04DX002 (ip), vehicle: saline with Tween-80 94 % of control | dose: 50.0 mg/kg/injection, schedule: Q04DX002 (ip), vehicle: saline with Tween-80 87 % of control

OCC1OC(n2cc(I)c3c(Cl)ncnc32)C(O)C1O (centres undefined)
inactive: dose: 100.0 mg/kg/injection, schedule: Q01DX001 (ip), vehicle: saline 98 % of control | dose: 200.0 mg/kg/injection, schedule: Q01DX001 (ip), vehicle: saline 110 % of control | dose: 400.0 mg/kg/injection, schedule: Q01DX001 (ip), vehicle: saline 110 % of control

CC12CCC3(CO3)CC1CCC1C2CCC2(C)C1CCC21CO1 (centres undefined)
inactive: dose: 75.0 mg/kg/injection, schedule: Q01DX001 (ip), vehicle: saline with Tween-80 104 % of control | dose: 150.0 mg/kg/injection, schedule: Q01DX001 (ip), vehicle: saline with Tween-80 106 % of control | dose: 300.0 mg/kg/injection, schedule: Q01DX001 (ip), vehicle: saline with Tween-80 113 % of control

C[N+]1=C2CCCC2=C(N)CC1
inactive: dose: 6.25 mg/kg/injection, schedule: Q01DX009 (ip), vehicle: saline 105 % of control | dose: 12.5 mg/kg/injection, schedule: Q01DX009 (ip), vehicle: saline 100 % of control | dose: 25.0 mg/kg/injection, schedule: Q01DX009 (ip), vehicle: saline 98 % of control

O=S1(=O)CC=CC1
inactive: [5] 98 % of control | dose: 100.0 mg/kg/injection, schedule: Q04DX003 (ip), vehicle: saline sonified 103 % of control | [6] 101 % of control | dose: 200.0 mg/kg/injection, schedule: Q04DX003 (ip), vehicle: saline sonified 106 % of control | [7] 101 % of control | dose: 400.0 mg/kg/injection, schedule: Q04DX003 (ip), vehicle: saline sonified 95 % of control

CCOC(=O)COC(=O)CN1C(=O)c2ccccc2C1=O
inactive: dose: 50.0 mg/kg/injection, schedule: Q01DX001 (ip), vehicle: water 93 % of control | dose: 100.0 mg/kg/injection, schedule: Q01DX001 (ip), vehicle: water 98 % of control | dose: 200.0 mg/kg/injection, schedule: Q01DX001 (ip), vehicle: water 104 % of control | dose: 400.0 mg/kg/injection, schedule: Q01DX001 (ip), vehicle: water 94 % of control

O=[N+]([O-])c1ccc(Sc2ccc([N+](=O)[O-])cc2)cc1
inactive: [1] 88 % of control | [2] 92 % of control

OCC1C(CO)C2CC1C1N=NN(c3ccccc3)C21 (centres undefined)
inactive: dose: 100.0 mg/kg/injection, schedule: Q01DX001 (ip), vehicle: saline sonified 102 % of control | dose: 200.0 mg/kg/injection, schedule: Q01DX001 (ip), vehicle: saline sonified 100 % of control | dose: 400.0 mg/kg/injection, schedule: Q01DX001 (ip), vehicle: saline sonified 100 % of control

CC1(C)CC([NH-])(C(=O)O)CC(C)(C)N1O.CC1(C)CC([NH-])(C(=O)O)CC(C)(C)N1O.[Zn+2]
inactive: [8] 96 % of control | [9] 96 % of control | [10] 96 % of control | [5] 93 % of control

O=C(O)C(Br)CC(Br)C(=O)O (centres undefined)
inactive: dose: 50.0 mg/kg/injection, schedule: Q01DX009 (ip), vehicle: saline 93 % of control | dose: 100.0 mg/kg/injection, schedule: Q01DX009 (ip), vehicle: saline 93 % of control

S=C1Nc2ccccc2CS1
inactive: dose: 100.0 mg/kg/injection, schedule: Q01DX001 (ip), vehicle: Klucel (hydroxypropylcellulose) (HPC) 105 % of control | dose: 200.0 mg/kg/injection, schedule: Q01DX001 (ip), vehicle: Klucel (hydroxypropylcellulose) (HPC) 102 % of control | dose: 400.0 mg/kg/injection, schedule: Q01DX001 (ip), vehicle: Klucel (hydroxypropylcellulose) (HPC) 103 % of control

BrC1CCC([Si](c2ccccc2)(c2ccccc2)c2ccccc2)CC1 (centres undefined)
inactive: [1] 87 % of control | [2] 93 % of control | [3] 93 % of control

CC(=O)Nc1cccc2ccccc12
inactive: [5] 95 % of control | [6] 97 % of control

CC(=O)Nc1cc2c3c(c1)CCN3CCC2
inactive: dose: 3.13 mg/kg/injection, schedule: Q01DX001 (ip), vehicle: saline 100 % of control | dose: 6.25 mg/kg/injection, schedule: Q01DX001 (ip), vehicle: saline 113 % of control | dose: 12.5 mg/kg/injection, schedule: Q01DX001 (ip), vehicle: saline 112 % of control

O=[N+]([O-])c1ccc(O)c(N=Cc2ccccc2O)c1
inactive: dose: 100.0 mg/kg/injection, schedule: Q04DX002 (ip), vehicle: Klucel (hydroxypropylcellulose) (HPC) 105 % of control | dose: 200.0 mg/kg/injection, schedule: Q04DX002 (ip), vehicle: Klucel (hydroxypropylcellulose) (HPC) 97 % of control | dose: 400.0 mg/kg/injection, schedule: Q04DX002 (ip), vehicle: Klucel (hydroxypropylcellulose) (HPC) 97 % of control

O=C(CNC(=O)Nc1cccc(C(F)(F)F)c1)N/N=C/c1ccccc1O
inactive: [8] 95 % of control | [9] 87 % of control | [10] 88 % of control | [5] 100 % of control | [6] 103 % of control

CN1CC=C(N2CCOCC2)CC1
inactive: dose: 25.0 mg/kg/injection, schedule: Q04DX003 (ip), vehicle: saline 109 % of control | dose: 50.0 mg/kg/injection, schedule: Q04DX003 (ip), vehicle: saline 103 % of control | [4] 103 % of control and 109 % of control

O=C1C2CC3C1C1(Cl)C(Cl)C4(Cl)C2C3C1(Cl)C4(Cl)Cl (centres undefined)
inactive: dose: 9.5 mg/kg/injection, schedule: Q01DX001 (ip), vehicle: other 98 % of control | dose: 19.0 mg/kg/injection, schedule: Q01DX001 (ip), vehicle: other 104 % of control | dose: 38.0 mg/kg/injection, schedule: Q01DX001 (ip), vehicle: other 103 % of control | dose: 75.0 mg/kg/injection, schedule: Q01DX001 (ip), vehicle: other 104 % of control

Nc1ncnc2c1c1cncnc1n2C1OC(CO)C(O)C1O (centres undefined)
inactive: dose: 12.5 mg/kg/injection, schedule: Q01DX005 (ip), vehicle: distilled water + Tween-80 96 % of control | dose: 25.0 mg/kg/injection, schedule: Q01DX005 (ip), vehicle: distilled water + Tween-80 98 % of control | dose: 50.0 mg/kg/injection, schedule: Q01DX005 (ip), vehicle: distilled water + Tween-80 93 % of control | dose: 100.0 mg/kg/injection, schedule: Q01DX005 (ip), vehicle: distilled water + Tween-80 90 % of control | dose: 200.0 mg/kg/injection, schedule: Q01DX005 (ip), vehicle: distilled water + Tween-80 105 % of control | dose: 400.0 mg/kg/injection, schedule: Q01DX005 (ip), vehicle: distilled water + Tween-80 110 % of control

O=S(=O)(Nc1cccc(NS(=O)(=O)c2ccccc2)n1)c1ccccc1
inactive: [1] 92 % of control | [2] 102 % of control | [3] 92 % of control

O=C(O)c1cc2c(Cl)cccc2[nH]1
inactive: [9] 109 % of control | [10] 98 % of control | [5] 94 % of control | [1] 106 % of control

CCC1=C(C)C(=O)Nc2c3ncnc-3ncn2C1O (centres undefined)
inactive: [10] 104 % of control | [5] 101 % of control | [6] 102 % of control

NCc1ccc([N+](=O)[O-])cc1Cl
inactive: [10] 94 % of control | [5] 94 % of control

CCCCC(=O)n1c(Cl)c(/C=N\NC(N)=S)c2ccccc21
inactive: dose: 25.0 mg/kg/injection, schedule: Q04DX003 (ip), vehicle: saline with Tween-80 101 % of control | dose: 50.0 mg/kg/injection, schedule: Q04DX003 (ip), vehicle: saline with Tween-80 101 % of control | [1] 108 % of control

OC1C=CC2CC1C2 (centres undefined)
inactive: [1] 95 % of control | [2] 98 % of control | [3] 98 % of control
